Values quoted from earlier work as cited in patent publication US10421941B2, “Process for improving the solubility of cell culture media” (Merck Patent GmbH, priority 2014, dated 2019).

settings: water / aqueous solvents

Structure (SMILES)	solubility (in words)
N[C@@H](CSSC[C@H](N)C(=O)O)C(=O)O [cystine]	poorly soluble
CC[C@H](C)[C@H](N)C(=O)O [isoleucine]	moderate
CC(C)C[C@H](N)C(=O)O [leucine]	moderate
CC(C)[C@H](N)C(=O)O [valine]	moderate
